Test results reported in PMC8500670, “A selective WDR5 degrader inhibits acute myeloid leukemia in patient-derived mouse models” (Science translational medicine, 2021).

Tests used:
[1] = target: WDR5 (WD40 repeat domain protein 5) (Homo sapiens, UniProt P61964); assay: ITC; […]-Å crystal structure of WDR5-MS67-VCB ternary complex; type: binding
[2] = target: von Hippel–Lindau (VHL) (Homo sapiens, UniProt P40337); assay: as above; type: binding
[3] = target: FGFR1 (Homo sapiens, UniProt P11362); assay: biochemical; parameters: kinase selectivity panel, single concentration, duplicate
Sequence of FGFR1 (P11362 whole entry): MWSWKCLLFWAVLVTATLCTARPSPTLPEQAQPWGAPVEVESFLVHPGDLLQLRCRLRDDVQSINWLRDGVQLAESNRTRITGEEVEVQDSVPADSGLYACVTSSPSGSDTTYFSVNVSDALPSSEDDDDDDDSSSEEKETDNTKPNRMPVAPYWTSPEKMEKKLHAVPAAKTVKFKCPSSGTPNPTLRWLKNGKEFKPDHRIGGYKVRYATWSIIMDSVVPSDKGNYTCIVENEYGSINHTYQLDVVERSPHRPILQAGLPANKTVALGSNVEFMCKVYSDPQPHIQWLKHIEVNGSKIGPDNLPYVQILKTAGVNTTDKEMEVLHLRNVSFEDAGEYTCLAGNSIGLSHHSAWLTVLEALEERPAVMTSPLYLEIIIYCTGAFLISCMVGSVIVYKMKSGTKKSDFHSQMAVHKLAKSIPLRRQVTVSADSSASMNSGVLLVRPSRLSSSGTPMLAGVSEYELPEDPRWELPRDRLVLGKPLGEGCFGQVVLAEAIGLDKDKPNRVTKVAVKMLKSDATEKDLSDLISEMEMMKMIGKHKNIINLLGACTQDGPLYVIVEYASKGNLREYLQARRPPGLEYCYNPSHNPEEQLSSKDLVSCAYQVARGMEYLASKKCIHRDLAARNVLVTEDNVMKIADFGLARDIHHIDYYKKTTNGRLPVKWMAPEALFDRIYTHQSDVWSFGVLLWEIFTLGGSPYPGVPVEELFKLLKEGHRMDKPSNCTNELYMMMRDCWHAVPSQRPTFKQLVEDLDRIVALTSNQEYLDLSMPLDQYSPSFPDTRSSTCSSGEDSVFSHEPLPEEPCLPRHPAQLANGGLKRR
Procedure: (§1) We next assessed selectivity of MS67 against 22 protein methyltransferases (table S2) and a broad panel of common drug targets including 45 kinases (table S3) and 44 G protein–coupled receptors (GPCR), ion channels, and transporters (table S4). […] We subsequently determined that MS67 had moderate binding affinity (Ki = 1.0 ± 0.8 μM) to Sigma 2 receptor (fig. S10).

[4] = target: EphA3 (Homo sapiens, UniProt P29320); assay: biochemical; parameters: kinase selectivity panel, single concentration, duplicate
Procedure: as §1

[5] = target: T1, MAPK2 (Homo sapiens, UniProt P28482); assay: biochemical; parameters: kinase selectivity panel, single concentration, duplicate
T1 construct: gene MAPK1
T1 sequence (P28482 whole entry): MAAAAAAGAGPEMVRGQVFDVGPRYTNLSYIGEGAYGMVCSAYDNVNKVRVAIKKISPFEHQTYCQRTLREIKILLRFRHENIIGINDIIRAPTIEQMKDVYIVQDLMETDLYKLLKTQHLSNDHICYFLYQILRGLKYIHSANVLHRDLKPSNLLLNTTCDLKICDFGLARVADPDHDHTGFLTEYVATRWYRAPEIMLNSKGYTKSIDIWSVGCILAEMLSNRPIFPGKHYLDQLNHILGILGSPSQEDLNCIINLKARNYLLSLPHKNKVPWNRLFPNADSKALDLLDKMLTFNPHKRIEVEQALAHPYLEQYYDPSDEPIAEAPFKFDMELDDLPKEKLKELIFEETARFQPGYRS
Procedure: as §1

[6] = target: IRAK4 (Homo sapiens, UniProt Q9NWZ3); assay: biochemical; parameters: kinase selectivity panel, single concentration, duplicate
Procedure: as §1

[7] = target: T2, Aurora-A (Homo sapiens, UniProt O14965); assay: biochemical; parameters: kinase selectivity panel, single concentration, duplicate
T2 construct: gene AURKA
Procedure: as §1

[8] = target: JAK3 (Homo sapiens, UniProt P52333); assay: biochemical; parameters: kinase selectivity panel, single concentration, duplicate
Procedure: as §1

[9] = target: T3, TRKA (Homo sapiens, UniProt P04629); assay: biochemical; parameters: kinase selectivity panel, single concentration, duplicate
T3 construct: gene NTRK1
Procedure: as §1

[10] = target: KDR (Homo sapiens, UniProt P35968); assay: biochemical; parameters: kinase selectivity panel, single concentration, duplicate
Procedure: as §1

[11] = target: EGFR (Homo sapiens, UniProt P00533); assay: biochemical; parameters: kinase selectivity panel, single concentration, duplicate
Procedure: as §1

[12] = target: CDK1/cyclinB (Homo sapiens, UniProt P06493); assay: biochemical; parameters: kinase selectivity panel, single concentration, duplicate
Procedure: as §1

[13] = target: T4, JNK1α1 (Homo sapiens, UniProt P45983); assay: biochemical; parameters: kinase selectivity panel, single concentration, duplicate
T4 construct: gene MAPK8; isoform alpha1
Procedure: as §1

[14] = target: MAP4K4 (Homo sapiens, UniProt O95819); assay: biochemical; parameters: kinase selectivity panel, single concentration, duplicate
Procedure: as §1

[15] = target: T5, TAO2 (Homo sapiens, UniProt Q9UL54); assay: biochemical; parameters: kinase selectivity panel, single concentration, duplicate
T5 construct: gene TAOK2
Procedure: as §1

[16] = target: PAK4 (Homo sapiens, UniProt O96013); assay: biochemical; parameters: kinase selectivity panel, single concentration, duplicate
Procedure: as §1

[17] = target: T6, cSRC (Homo sapiens, UniProt P12931); assay: biochemical; parameters: kinase selectivity panel, single concentration, duplicate
T6 construct: gene SRC
Procedure: as §1

[18] = target: T7, PKBα (Homo sapiens, UniProt P31749); assay: biochemical; parameters: kinase selectivity panel, single concentration, duplicate
T7 construct: gene AKT1
Procedure: as §1

[19] = target: T8, Pim-2 (Homo sapiens, UniProt Q9P1W9); assay: biochemical; parameters: kinase selectivity panel, single concentration, duplicate
T8 construct: gene PIM2
T8 sequence (Q9P1W9 whole entry): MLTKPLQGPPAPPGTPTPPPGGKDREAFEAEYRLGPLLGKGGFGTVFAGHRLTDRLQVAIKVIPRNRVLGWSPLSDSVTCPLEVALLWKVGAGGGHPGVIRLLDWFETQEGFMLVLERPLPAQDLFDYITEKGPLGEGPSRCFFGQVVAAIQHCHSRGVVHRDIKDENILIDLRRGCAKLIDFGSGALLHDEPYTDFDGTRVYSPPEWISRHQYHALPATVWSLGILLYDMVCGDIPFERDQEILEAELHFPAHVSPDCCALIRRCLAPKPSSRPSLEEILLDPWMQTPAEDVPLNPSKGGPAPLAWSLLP
Procedure: as §1

[20] = target: T9, PDK1 (Homo sapiens, UniProt O15530); assay: biochemical; parameters: kinase selectivity panel, single concentration, duplicate
T9 construct: gene PDPK1
T9 sequence (O15530 whole entry): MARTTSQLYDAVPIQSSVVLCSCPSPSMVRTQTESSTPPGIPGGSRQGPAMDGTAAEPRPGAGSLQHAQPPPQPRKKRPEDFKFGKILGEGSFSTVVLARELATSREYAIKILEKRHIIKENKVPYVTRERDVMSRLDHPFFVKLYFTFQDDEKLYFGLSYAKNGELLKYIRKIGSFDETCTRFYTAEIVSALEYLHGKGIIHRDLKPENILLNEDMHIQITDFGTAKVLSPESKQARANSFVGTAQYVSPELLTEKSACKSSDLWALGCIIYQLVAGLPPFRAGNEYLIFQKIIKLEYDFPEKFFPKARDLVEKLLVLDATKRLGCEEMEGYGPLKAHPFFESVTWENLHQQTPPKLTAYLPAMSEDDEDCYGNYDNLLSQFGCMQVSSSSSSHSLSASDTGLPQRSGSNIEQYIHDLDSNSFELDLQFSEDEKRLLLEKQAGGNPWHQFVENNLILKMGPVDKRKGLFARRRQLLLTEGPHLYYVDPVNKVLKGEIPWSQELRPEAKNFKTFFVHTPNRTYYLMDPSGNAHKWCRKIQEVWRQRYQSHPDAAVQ
Procedure: as §1

[21] = target: CDK2/cyclinA (Homo sapiens, UniProt P24941); assay: biochemical; parameters: kinase selectivity panel, single concentration, duplicate
Procedure: as §1

[22] = target: T10, MAPKAP-K2 (Homo sapiens, UniProt P49137); assay: biochemical; parameters: kinase selectivity panel, single concentration, duplicate
T10 construct: gene MAPKAPK2
T10 sequence (P49137 whole entry): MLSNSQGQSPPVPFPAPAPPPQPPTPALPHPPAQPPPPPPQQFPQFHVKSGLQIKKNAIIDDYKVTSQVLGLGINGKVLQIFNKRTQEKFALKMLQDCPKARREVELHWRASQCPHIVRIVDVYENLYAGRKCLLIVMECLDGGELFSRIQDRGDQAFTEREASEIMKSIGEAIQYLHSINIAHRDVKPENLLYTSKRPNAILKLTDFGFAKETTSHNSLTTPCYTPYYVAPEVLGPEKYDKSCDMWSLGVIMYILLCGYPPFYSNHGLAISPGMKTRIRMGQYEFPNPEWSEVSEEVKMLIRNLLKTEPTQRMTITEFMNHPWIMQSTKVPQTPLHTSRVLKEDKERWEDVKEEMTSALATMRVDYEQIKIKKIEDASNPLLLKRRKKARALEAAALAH
Procedure: as §1

[23] = target: T11, ROCK-I (Homo sapiens, UniProt Q13464); assay: biochemical; parameters: kinase selectivity panel, single concentration, duplicate
T11 construct: gene ROCK1
T11 sequence (Q13464 whole entry): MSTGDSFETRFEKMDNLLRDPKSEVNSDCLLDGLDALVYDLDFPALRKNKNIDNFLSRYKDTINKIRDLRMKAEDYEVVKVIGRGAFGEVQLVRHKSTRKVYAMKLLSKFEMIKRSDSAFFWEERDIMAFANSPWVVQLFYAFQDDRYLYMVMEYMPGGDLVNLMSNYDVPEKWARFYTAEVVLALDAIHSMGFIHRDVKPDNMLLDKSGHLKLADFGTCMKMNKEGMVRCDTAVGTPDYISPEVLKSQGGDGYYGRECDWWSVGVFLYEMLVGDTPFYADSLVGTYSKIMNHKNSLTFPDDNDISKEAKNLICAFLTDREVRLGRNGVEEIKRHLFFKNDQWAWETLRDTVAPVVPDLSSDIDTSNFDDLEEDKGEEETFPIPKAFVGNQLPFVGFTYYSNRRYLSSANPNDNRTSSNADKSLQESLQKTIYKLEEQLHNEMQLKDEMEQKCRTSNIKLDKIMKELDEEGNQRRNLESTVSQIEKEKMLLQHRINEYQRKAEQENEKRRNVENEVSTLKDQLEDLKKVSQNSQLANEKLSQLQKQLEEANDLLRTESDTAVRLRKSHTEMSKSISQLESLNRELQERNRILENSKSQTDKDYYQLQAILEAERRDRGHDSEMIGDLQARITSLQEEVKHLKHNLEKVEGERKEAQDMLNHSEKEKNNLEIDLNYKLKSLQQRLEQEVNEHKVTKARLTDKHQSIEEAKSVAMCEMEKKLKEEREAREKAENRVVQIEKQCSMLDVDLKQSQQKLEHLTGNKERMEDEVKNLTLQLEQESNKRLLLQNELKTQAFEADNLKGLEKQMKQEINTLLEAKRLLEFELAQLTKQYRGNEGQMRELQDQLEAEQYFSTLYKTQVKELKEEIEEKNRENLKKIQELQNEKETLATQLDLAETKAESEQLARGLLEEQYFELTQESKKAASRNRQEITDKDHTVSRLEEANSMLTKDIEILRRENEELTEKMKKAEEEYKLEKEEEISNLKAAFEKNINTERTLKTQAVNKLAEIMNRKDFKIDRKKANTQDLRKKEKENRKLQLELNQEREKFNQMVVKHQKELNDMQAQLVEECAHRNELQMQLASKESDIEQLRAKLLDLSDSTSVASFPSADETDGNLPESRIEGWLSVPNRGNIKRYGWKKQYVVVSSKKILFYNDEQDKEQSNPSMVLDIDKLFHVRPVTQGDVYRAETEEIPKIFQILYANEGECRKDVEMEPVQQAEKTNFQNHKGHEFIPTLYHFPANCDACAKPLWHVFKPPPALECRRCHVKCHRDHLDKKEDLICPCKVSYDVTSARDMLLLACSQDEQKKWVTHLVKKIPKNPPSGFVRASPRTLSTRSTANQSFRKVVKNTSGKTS
Procedure: as §1

[24] = target: T12, GSK3β (Homo sapiens, UniProt P49841); assay: biochemical; parameters: kinase selectivity panel, single concentration, duplicate
T12 construct: gene GSK3B
T12 sequence (P49841 whole entry): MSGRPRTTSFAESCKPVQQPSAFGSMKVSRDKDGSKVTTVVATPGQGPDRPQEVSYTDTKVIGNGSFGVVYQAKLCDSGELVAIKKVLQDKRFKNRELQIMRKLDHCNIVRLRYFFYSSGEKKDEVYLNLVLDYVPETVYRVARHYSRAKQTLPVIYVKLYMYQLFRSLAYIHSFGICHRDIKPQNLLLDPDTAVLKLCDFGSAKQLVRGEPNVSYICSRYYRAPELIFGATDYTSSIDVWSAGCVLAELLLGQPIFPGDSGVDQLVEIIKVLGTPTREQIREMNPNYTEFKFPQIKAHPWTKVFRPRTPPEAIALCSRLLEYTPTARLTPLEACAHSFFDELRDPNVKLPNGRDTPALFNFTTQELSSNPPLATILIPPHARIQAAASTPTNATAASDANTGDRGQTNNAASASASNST
Procedure: as §1

[25] = target: T13, CaMKIIα (Homo sapiens, UniProt Q9UQM7); assay: biochemical; parameters: kinase selectivity panel, single concentration, duplicate
T13 construct: gene CAMK2A
T13 sequence (Q9UQM7 whole entry): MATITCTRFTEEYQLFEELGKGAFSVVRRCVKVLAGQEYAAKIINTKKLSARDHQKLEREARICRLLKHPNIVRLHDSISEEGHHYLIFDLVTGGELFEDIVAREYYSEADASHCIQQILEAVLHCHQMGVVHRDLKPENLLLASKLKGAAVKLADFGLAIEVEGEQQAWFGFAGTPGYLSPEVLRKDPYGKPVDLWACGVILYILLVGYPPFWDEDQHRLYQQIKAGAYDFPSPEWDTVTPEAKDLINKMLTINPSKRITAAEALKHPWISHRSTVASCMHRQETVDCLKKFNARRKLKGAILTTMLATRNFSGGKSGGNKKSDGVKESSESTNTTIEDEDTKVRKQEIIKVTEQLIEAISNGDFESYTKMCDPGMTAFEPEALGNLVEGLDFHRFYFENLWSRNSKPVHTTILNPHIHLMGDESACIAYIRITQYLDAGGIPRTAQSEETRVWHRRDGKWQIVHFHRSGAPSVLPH
Procedure: as §1

[26] = target: T14, SAPK2a (Homo sapiens, UniProt Q16539); assay: biochemical; parameters: kinase selectivity panel, single concentration, duplicate
T14 construct: gene MAPK14
Procedure: as §1

[27] = target: MARK1 (Homo sapiens, UniProt Q9P0L2); assay: biochemical; parameters: kinase selectivity panel, single concentration, duplicate
Procedure: as §1

[28] = target: Lck (Homo sapiens, UniProt P06239); assay: biochemical; parameters: kinase selectivity panel, single concentration, duplicate
Procedure: as §1

Cc1ncsc1-c1ccc([C@H](C)NC(=O)[C@@H]2C[C@@H](O)CN2C(=O)[C@@H](NC(=O)CNC(=O)c2ccc(F)c(-c3ccc(N4C[C@@H](C)N(C)[C@@H](C)C4)c(NC(=O)c4c[nH]c(=O)cc4C(F)(F)F)c3)c2)C(C)(C)C)cc1 [MS67]
Kd [1]: 63 ± 10 nM
Kd [2]: 140 ± 7.2 nM
inhibition at 1 µM [3]: < 10%
inhibition at 1 µM [4]: < 10%
inhibition at 1 µM [5]: < 10%
inhibition at 1 µM [6]: < 10%
inhibition at 1 µM [7]: < 10%
inhibition at 1 µM [8]: < 10%
inhibition at 1 µM [9]: < 10%
inhibition at 1 µM [10]: < 10%
inhibition at 1 µM [11]: < 10%
inhibition at 1 µM [12]: < 10%
inhibition at 1 µM [13]: < 10%
inhibition at 1 µM [14]: < 10%
inhibition at 1 µM [15]: < 10%
inhibition at 1 µM [16]: < 10%
inhibition at 1 µM [17]: < 10%
inhibition at 1 µM [18]: < 10%
inhibition at 1 µM [19]: < 10%
inhibition at 1 µM [20]: < 10%
inhibition at 1 µM [21]: < 10%
inhibition at 1 µM [22]: < 10%
inhibition at 1 µM [23]: < 10%
inhibition at 1 µM [24]: < 10%
inhibition at 1 µM [25]: < 10%
inhibition at 1 µM [26]: < 10%
inhibition at 1 µM [27]: < 10%
inhibition at 1 µM [28]: < 10%
